Data: ChEMBL document CHEMBL6134884, “Identification of JNJ-61803534, a RORγt Inverse Agonist for the Treatment of Psoriasis” (J Med Chem, 2025)
Values after ≈ are worked out from the molar mass of the structure shown.

Tests used:
[1] = target: T1, Nuclear receptor ROR-beta (Homo sapiens, UniProt Q92753); assay: Inverse agonist activity at human RORbeta assessed as dissociation constant by thermofluor assay
T1 sequence (Q92753 whole entry): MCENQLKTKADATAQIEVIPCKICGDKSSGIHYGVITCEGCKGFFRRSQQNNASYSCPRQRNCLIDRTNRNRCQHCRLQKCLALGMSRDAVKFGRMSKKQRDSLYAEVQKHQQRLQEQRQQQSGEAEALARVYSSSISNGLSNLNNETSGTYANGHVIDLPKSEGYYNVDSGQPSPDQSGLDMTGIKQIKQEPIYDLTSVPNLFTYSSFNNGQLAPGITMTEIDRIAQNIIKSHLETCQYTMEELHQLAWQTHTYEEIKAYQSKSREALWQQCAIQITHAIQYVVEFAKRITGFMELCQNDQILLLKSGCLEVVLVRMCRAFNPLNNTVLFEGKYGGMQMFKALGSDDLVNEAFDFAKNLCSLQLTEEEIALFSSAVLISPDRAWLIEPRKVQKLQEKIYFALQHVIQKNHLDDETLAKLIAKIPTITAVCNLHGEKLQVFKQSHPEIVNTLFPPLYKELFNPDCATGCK

[2] = target: T2, Nuclear receptor ROR-gamma (Homo sapiens, UniProt P51449); assay: Inverse agonist activity at RORgammat in human whole blood assessed as IL-17A production incubated for 1 hrs by ELISA analysis; assay type: tissue-based
T2 sequence (P51449 whole entry): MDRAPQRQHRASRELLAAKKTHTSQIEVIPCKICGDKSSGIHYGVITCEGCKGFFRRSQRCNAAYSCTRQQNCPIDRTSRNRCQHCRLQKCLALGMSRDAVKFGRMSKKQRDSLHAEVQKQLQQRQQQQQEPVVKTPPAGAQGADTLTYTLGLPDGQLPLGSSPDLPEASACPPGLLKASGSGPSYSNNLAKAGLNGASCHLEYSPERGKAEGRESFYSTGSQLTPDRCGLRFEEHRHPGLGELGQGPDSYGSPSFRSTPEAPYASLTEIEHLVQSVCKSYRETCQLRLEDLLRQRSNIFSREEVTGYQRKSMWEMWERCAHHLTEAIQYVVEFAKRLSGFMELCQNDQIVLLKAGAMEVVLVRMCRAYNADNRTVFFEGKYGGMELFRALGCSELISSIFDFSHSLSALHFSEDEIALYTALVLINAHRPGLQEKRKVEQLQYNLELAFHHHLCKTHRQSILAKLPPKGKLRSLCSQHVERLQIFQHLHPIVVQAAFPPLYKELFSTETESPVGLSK

[3] = Aqueous solubility of the compound at pH 7; assay type: physicochemical; settings: aqueous solution
[4] = Aqueous solubility of the compound at pH 2; assay type: physicochemical; settings: aqueous solution
[5] = target: T3, Nuclear receptor subfamily 1 group I member 2 (Homo sapiens, UniProt O75469); assay: Activation of human PXR at 1 uM relative to control; assay type: toxicity
T3 sequence (O75469 whole entry): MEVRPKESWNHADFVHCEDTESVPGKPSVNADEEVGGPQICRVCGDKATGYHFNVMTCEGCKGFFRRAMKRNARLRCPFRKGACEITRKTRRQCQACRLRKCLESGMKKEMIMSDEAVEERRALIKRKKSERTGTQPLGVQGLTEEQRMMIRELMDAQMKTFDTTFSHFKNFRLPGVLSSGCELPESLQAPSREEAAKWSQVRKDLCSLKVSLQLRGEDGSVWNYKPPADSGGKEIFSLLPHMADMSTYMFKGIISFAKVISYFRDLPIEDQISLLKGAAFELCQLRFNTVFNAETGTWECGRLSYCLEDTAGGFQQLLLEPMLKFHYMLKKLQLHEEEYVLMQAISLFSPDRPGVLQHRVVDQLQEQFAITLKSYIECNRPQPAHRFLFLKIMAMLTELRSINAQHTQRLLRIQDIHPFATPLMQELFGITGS

[6] = target: Cytochrome P450 3A4 (Homo sapiens, UniProt P08684); assay: Induction of CYP3A4 in human hepatocytes at 10 uM relative to control; assay type: ADME, cell-based, Hepatocyte
[7] = Solubility of compound in FaSSIF; assay type: physicochemical
[8] = Solubility of compound in SGF; assay type: physicochemical
[9] = target: T4, PXR (Homo sapiens, UniProt O75469); assay: Activation of human PXR at 10 uM relative to control; assay type: toxicity; settings: read-out: Activity
T4 sequence (O75469 whole entry): T3 sequence (O75469 whole entry)

[10] = target: T2, Nuclear receptor ROR-gamma; assay: Inverse agonist activity at human RORgammat by mammalian 1-hybrid assay
[11] = Drug uptake in male rat plasma at 50 mg/kg, po after 5 days; assay type: ADME, organism-based; settings: in vivo, 120 h, time 5 day
[12] = target: T4, PXR; assay: Activation of human PXR at 5 uM relative to control; assay type: toxicity; settings: read-out: Activity
[13] = target: T2, Nuclear receptor ROR-gamma; assay: Inverse agonist activity at N-terminal his-tagged wild type human RORgammat LBD domain expressed in Escherichia coli assessed as dissociation constant by thermofluor assay
[14] = Cmax in male Sprague-Dawley rat at 1 mg/kg, iv or 5 mg/kg, po measured 24 hrs post dose by LC-MS/MS analysis; assay type: ADME, organism-based; settings: in vivo

Sequence of Cytochrome P450 3A4 (P08684 whole entry): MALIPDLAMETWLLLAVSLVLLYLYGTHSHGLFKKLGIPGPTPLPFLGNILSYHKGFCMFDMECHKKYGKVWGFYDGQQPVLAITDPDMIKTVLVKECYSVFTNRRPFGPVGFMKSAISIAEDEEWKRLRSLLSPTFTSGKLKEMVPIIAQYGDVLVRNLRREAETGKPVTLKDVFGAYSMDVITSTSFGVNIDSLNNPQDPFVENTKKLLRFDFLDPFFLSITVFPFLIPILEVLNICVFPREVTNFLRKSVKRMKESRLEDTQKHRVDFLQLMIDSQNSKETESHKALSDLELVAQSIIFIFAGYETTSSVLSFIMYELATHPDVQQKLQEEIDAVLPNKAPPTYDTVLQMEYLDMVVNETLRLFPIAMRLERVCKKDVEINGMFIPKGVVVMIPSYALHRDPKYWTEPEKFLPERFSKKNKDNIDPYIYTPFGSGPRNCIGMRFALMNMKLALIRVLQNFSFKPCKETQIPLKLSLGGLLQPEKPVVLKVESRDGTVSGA

| Kd [1] [nM] | solubility [3] [µM] | solubility [4] [µM] | Activity [6] [%] | solubility [7] [µM] | solubility [8] [µM] | IC50 [10] [nM] | Drug uptake [11] | Kd [13] [nM] | SMILES | IC50 [2] [nM] | Activity [5] [%] | activity at 10 µM [9] [%] | activity at 5 µM [12] [%] | Cmax [14] [nM] |
| --- | --- | --- | --- | --- | --- | --- | --- | --- | --- | --- | --- | --- | --- | --- |
| 15000 | 86 (≈ 48.8 µg/mL) | 35 (≈ 19.9 µg/mL) | 16 | 250 (≈ 142 µg/mL) | 63 (≈ 35.8 µg/mL) | – | – | – | Cc1cc(C(O)(C(F)(F)F)C(F)(F)F)ccc1-c1sc(C(=O)NCC(C)(C)O)nc1C(=O)N1CCC[C@@H]1C | 530 | 12 | 31 | – | – |
| – | – | – | – | – | – | 1700 | – | – | Cc1c(C(N)=O)cc(-c2ccc(C(O)(C(F)(F)F)C(F)(F)F)cc2)n1CC1CCCCC1 | – | – | – | – | – |
| 13000 | 13 (≈ 7.85 µg/mL) | 12 (≈ 7.24 µg/mL) | 33 | 99 (≈ 59.7 µg/mL) | 22 (≈ 13.3 µg/mL) | – | – | – | C[C@H]1CCCN1C(=O)c1nc(C(=O)NCC(C)(C)O)sc1-c1ccc(C(O)(C(F)(F)F)C(F)(F)F)cc1C(F)F | – | 27 | 74 | – | – |
| – | – | – | – | – | – | – | – | – | C[C@H](NS(=O)(=O)c1ccc(-c2sc(C(=O)NCC(C)(C)O)nc2C(=O)N2CCC(F)CC2)c(Cl)c1Cl)C(F)(F)F | – | 13 | – | – | – |
| 3500 | < 4 | < 4 | 16 | – | – | – | Active | – | CCN(CC)C(=O)c1nc(C(=O)NCC(C)(C)O)sc1-c1ccc(C(O)(C(F)(F)F)C(F)(F)F)c(Cl)c1Cl | – | 32 | – | 76 | – |
| 430 | < 4 | < 4 | – | 77 (≈ 46.4 µg/mL) | < 4 | – | – | 0.058 | C[C@H]1CCCCN1C(=O)c1nc(C(=O)NCC(C)(C)O)sc1-c1ccc(C(O)(C(F)(F)F)C(F)(F)F)cc1Cl | 81 | 13 | 25 | – | – |
| 1100 | – | – | – | – | – | – | – | 0.2 | CCN(C(=O)c1nc(C(=O)NCC(C)(C)O)sc1-c1ccc(C(O)(C(F)(F)F)C(F)(F)F)c(Cl)c1Cl)C1CCC1 | – | 10 | – | 21 | – |
| 1400 | < 4 | < 4 | 10 | 4.6 (≈ 2.68 µg/mL) | < 4 | – | – | 0.25 | Cc1cc(C(O)(C(F)(F)F)C(F)(F)F)ccc1-c1sc(C(=O)NCC(C)(C)O)nc1C(=O)N1CCCC[C@@H]1C | 160 | 8 | 24 | – | – |
| 850 | < 4 | < 4 | – | 14 (≈ 8.65 µg/mL) | < 4 | – | – | – | C[C@H]1CCCCN1C(=O)c1nc(C(=O)NCC(C)(C)O)sc1-c1ccc(C(O)(C(F)(F)F)C(F)(F)F)cc1C(F)F | – | 28 | 84 | – | – |
| 2300 | – | – | – | – | – | 9.4 | – | 0.4 | CN(C(=O)c1nc(C(=O)NCC(C)(C)O)sc1-c1ccc(C(O)(C(F)(F)F)C(F)(F)F)c(Cl)c1Cl)C1CCC1 | – | 1.9 | – | 9.1 | – |
| – | – | – | – | – | – | 1780 | – | – | Cc1c(S(N)(=O)=O)cc(-c2ccc(S(=O)(=O)NC(C)(C)C)cc2)n1CC1CCCCC1 | – | – | – | – | – |
| 4900 | < 4 | 6.3 (≈ 3.7 µg/mL) | 11 | 130 (≈ 76.4 µg/mL) | 6.3 (≈ 3.7 µg/mL) | – | – | 0.63 | C[C@H]1CCCN1C(=O)c1nc(C(=O)NCC(C)(C)O)sc1-c1ccc(C(O)(C(F)(F)F)C(F)(F)F)cc1Cl | 240 | 3.6 | 27 | – | – |

| SMILES | Kd [1] [nM] | solubility [3] [µM] | solubility [4] [µM] | Activity [6] [%] | solubility [7] [µM] | solubility [8] [µM] | IC50 [10] [nM] | Drug uptake [11] | Kd [13] [nM] | IC50 [2] [nM] | Activity [5] [%] | activity at 10 µM [9] [%] | activity at 5 µM [12] [%] | Cmax [14] [nM] |
| --- | --- | --- | --- | --- | --- | --- | --- | --- | --- | --- | --- | --- | --- | --- |
| C[C@H]1C[C@@H](F)CCN1C(=O)c1nc(C(=O)NCC(C)(C)O)sc1-c1ccc(C(O)(C(F)(F)F)C(F)(F)F)c(Cl)c1Cl | 1000 | < 4 | < 4 | – | – | – | – | – | – | 210 | 14 | – | 40 | – |
| C[C@H]1CC(F)(F)CN1C(=O)c1nc(C(=O)NCC(C)(C)O)sc1-c1ccc(C(O)(C(F)(F)F)C(F)(F)F)c(Cl)c1Cl | 2300 | < 4 | < 4 | – | – | – | – | – | – | 120 | 27 | – | 50 | – |
| CCN(CC)C(=O)c1nc(C(=O)N2C[C@H](O)C[C@H](O)C2)sc1-c1ccc(C(O)(C(F)(F)F)C(F)(F)F)c(Cl)c1Cl | 13000 | 41 (≈ 26.2 µg/mL) | 52 (≈ 33.2 µg/mL) | – | – | – | – | – | – | 190 | 2.7 | – | 4.7 | 100 |
| CC(C)(O)CNC(=O)c1nc(C(=O)N2CCC(F)CC2)c(-c2ccc(C(O)(C(F)(F)F)C(F)(F)F)c(Cl)c2Cl)s1 | 1900 | < 4 | < 4 | – | – | – | – | – | – | 890 | 1.5 | – | 14 | – |
